In patent US20060040917A1, “Benzoxazepine derivatives as selective estrogen receptor modulators” (priority 2004, published 2006):

Experiments:
[1] = target: T1, human estrogen receptor α (Homo sapiens, UniProt P03372); assay: Estrogen Receptor α Flash Plate Assay; settings: displacement of radio-labeled estrogen (0.5 nM), FlashPlate, 1 h room temperature; read-out: ERα Binding IC50
T1 construct: purchased Panvera
T1 sequence (P03372 1-595): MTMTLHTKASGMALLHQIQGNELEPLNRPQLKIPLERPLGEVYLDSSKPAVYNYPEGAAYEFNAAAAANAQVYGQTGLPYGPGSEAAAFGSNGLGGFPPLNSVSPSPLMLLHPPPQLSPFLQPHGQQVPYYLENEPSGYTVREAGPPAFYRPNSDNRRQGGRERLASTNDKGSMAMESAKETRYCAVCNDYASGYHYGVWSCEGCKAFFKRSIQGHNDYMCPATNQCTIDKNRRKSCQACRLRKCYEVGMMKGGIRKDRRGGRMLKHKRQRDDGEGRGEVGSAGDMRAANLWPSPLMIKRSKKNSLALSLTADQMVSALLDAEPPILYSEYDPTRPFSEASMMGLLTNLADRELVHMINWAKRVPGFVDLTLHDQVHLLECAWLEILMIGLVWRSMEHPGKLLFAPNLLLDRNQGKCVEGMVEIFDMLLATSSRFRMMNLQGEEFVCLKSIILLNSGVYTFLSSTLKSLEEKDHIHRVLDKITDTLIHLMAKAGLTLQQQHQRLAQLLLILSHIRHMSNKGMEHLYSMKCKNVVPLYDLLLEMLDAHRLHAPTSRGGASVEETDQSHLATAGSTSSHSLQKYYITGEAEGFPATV
Method: Estrogen Receptor α Flash Plate Assay
This assay monitors binding of radio-labeled estrogen to the estrogen receptor. It is performed on a BioMek 2000 (Beckman). Plates are read in a scintillation counter (Packard TopCount), with decreased counts an indication of binding of a compound to the receptor. The assay was run according to the procedure described by Allan, et al., Anal. Biochem. (1999), 275(2), 243-247.
On day one, 100 μL of Estrogen Screening Buffer (ESB, Panvera) containing 5 mM dithiothreitol (DTT, Panvera), 0.5 μg mouse anti-estrogen receptor monoclonal antibody (SRA-1010, Stressgen) and 50 ng purified human estrogen receptor α (Panvera) were added to each well of a 96 well FlashPlate Plus plate crosslinked with goat anti-mouse antibodies (NEN Life Sciences). The plate was sealed and incubated at 4° C. overnight.
On day two, each well was washed three times with 200 μL PBS, pH 7.2, at room temperature. To each well was then added 98 μL radio-labeled estrogen (0.5 nM, which equals 6 nCi for a 120 Ci/mmol batch, Amersham), diluted in ESB and 5 mM dithiothreitol (DTT). To individual wells were then added 2.5 μL test compound diluted in 30% (v/v) dimethyl sulfoxide/50 mM HEPES, pH 7.5. The wells were mixed three times by aspiration, the plate sealed and incubated at room temperature for one hour. The wells were then counted for 1 min in a TopCount scintillation counter (Packard).
(§1) Representative compound of the present invention were tested according to the procedure described above for binding to the Estrogen Receptor a and Estrogen Receptor β, with results as listed in Table 6.

hER-β = target: T2, hER-β (Homo sapiens, UniProt Q92731); assay: Estrogen Receptor β Fluorescence Polarization Assay; settings: displacement of Fluormone ES2, fluorescence polarization, 1 h room temperature; read-out: ERβ Binding IC50
T2 construct: purchased Panvera
Text: Estrogen Receptor β Fluorescence Polarization Assay
This assay monitors binding of a fluorescent analog of estrogen (Fluormone ES2, Panvera) to the estrogen receptor. Plates are read in a fluorometer that can be set to polarization mode. A decrease in […] relative to vehicle control is an indication of binding of a compound to the receptor.
It is crucial to avoid introduction of air bubbles into the reaction in each well of the 96 well plate throughout this procedure. (Bubbles on the surface of the reaction disrupt light flow, affecting the polarization reading.) However, it is also crucial to effectively mix the reaction components upon addition to the well.
On ice, a 2× standard mixture of Assay Buffer (Panvera), 10 nM DTT and 40 nM ES2 was prepared. On ice, a 2× reaction mixture of Assay Buffer (Panvera), and 20 nM hER-β (Panvera) and 40 nM ES2 was also prepared.
Dilutions of test compound were prepared in 30% (v/v) dimethyl sulfoxide/50 mM HEPES, pH 7.5. At this point, the dilutions were 40× the final required concentration.
The standard mixture at 50 μL was then added to each well. The reaction mixture at 48 μL was added to all wells. The compound dilution at 2.5 μL was added to the appropriate wells. The reaction mixtures were mixed using a manual pipette, a roll of aluminum foil adhesive cover was placed on the plate and the plate incubated at room temperature for 1 hour.
Each well on the plate was then read in an LjL Analyst with an excitation wavelength of […] and an emission wavelength of 538.
as §1

T2 sequence (Q92731 whole entry): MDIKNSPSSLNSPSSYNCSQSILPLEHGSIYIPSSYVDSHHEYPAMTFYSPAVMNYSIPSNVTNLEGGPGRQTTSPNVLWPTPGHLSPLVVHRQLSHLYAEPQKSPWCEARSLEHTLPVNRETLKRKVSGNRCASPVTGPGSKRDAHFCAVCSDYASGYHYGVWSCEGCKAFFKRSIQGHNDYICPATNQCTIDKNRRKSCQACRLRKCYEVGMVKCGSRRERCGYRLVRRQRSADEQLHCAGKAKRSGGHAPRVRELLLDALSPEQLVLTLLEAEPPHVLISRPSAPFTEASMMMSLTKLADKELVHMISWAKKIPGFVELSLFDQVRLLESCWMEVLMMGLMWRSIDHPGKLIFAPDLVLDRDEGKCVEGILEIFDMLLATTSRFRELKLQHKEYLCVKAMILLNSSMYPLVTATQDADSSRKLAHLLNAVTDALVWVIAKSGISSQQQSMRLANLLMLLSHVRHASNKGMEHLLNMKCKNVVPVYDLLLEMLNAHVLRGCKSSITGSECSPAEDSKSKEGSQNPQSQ

| SMILES | IC50 [1] [nM] | IC50 (hER-β) [nM] |
| --- | --- | --- |
| O=C(c1ccc(OCCCl)cc1)N1CC(c2cccc(O)c2)COc2cc(O)ccc21 (centres unmarked) [Compound 14] | 24 | 1100 |
| CC(=O)Oc1cccc(C2COc3cc(OC(C)=O)ccc3N(Cc3ccc(OCCN4CCCCC4)cc3)C2)c1 (centres unmarked) [Compound 16] | 120 | 670 |
| COCOc1ccc(C2COc3cc(OCOC)ccc3N(Cc3cccc(OCCN4CCCCC4)c3)C2)cc1 (centres unmarked) [Compound 20, 3-Methoxymethoxy-7-(4-methoxymethoxy-phenyl)-9-[3-(2-piperidin-1-yl-ethoxy)-benzyl]-6,7,8,9-tetrahydro-5-oxa-9-aza-benzocycloheptene] | > 1000 | > 1000 |
| Oc1cccc(C2COc3cc(O)ccc3N(Cc3cccc(OCCCl)c3)C2)c1 (centres unmarked) [Compound 24] | 56 | 92 |
| Oc1cccc(C2COc3cc(O)ccc3N(Cc3cccc(OCCN4CCCCC4)c3)C2)c1 (centres unmarked) [Compound 25] | 22 | 300 |
| CC(C)(C)C(=O)Oc1ccc(C2COc3cc(OC(=O)C(C)(C)C)ccc3N(Cc3cccc(OCCN4CCCCC4)c3)C2)cc1 (centres unmarked) [Compound 26] | > 1000 | > 1000 |
| CC(=O)Oc1cccc(C2COc3cc(OC(C)=O)ccc3N(C(=O)c3ccc(OCCCl)cc3)C2)c1 (centres unmarked) [Compound 15] | 100 | 2600 |
| COc1cccc(C2COc3cc(OC)ccc3N(C(=O)c3ccc(OCCN(C)C)cc3)C2)c1 (centres unmarked) [Compound 8] | 2900 | > 100000 |
| COCOc1ccc(C2COc3cc(OCOC)ccc3N(Cc3cccc(OCCCl)c3)C2)cc1 (centres unmarked) [Compound 19, 9-[3-(2-Chloro-ethoxy)-benzyl]-3-methoxymethoxy-7-(4-methoxymethoxy-phenyl)-6,7,8,9-tetrahydro-5-oxa-9-aza-benzocycloheptene] | > 1000 | > 1000 |
| Oc1ccc(C2COc3cc(O)ccc3N(Cc3cccc(OCCCl)c3)C2)cc1 (centres unmarked) [Compound 18, 9-[3-(2-Chloro-ethoxy)-benzyl]-7-(4-hydroxy-phenyl)-6,7,8,9-tetrahydro-5-oxa-9-aza-benzocyclohepten-3-ol] | 66 | 88 |
| COCOc1ccc(C2COc3cc(OCOC)ccc3N(Cc3cccc(OCCN4CCOCC4)c3)C2)cc1 (centres unmarked) [Compound 21] | > 1000 | > 1000 |
| O=C(c1cccc(OCCN2CCCCC2)c1)N1CC(c2cccc(O)c2)COc2cc(O)ccc21 (centres unmarked) [Compound 13, [3-Hydroxy-7-(3-hydroxy-phenyl)-7,8-dihydro-6H-5-oxa-9-aza-benzocyclohepten-9-yl]-[3-(2-piperidin-1-yl-ethoxy)-phenyl]-methanone] | 81 | 2600 |
| CN(C)CCOc1ccc(C(=O)N2CC(c3cccc(O)c3)COc3cc(O)ccc32)cc1 (centres unmarked) [Compound 9] | 530 | 26000 |
| Oc1ccc(C2COc3cc(O)ccc3N(Cc3ccc(OCCN4CCCCC4)cc3)C2)cc1 (centres unmarked) [Compound 12, 7-(4-Hydroxy-phenyl)-9-[4-(2-piperidin-1-yl-ethoxy)-benzyl]-6,7,8,9-tetrahydro-5-oxa-9-aza-benzocyclohepten-3-ol] | 430 | 1100 |
| Oc1ccc(C2COc3cc(O)ccc3N(Cc3cccc(OCCN4CCOCC4)c3)C2)cc1 (centres unmarked) [Compound 23] | 350 | 870 |
| Oc1ccc(C2COc3cc(O)ccc3N(Cc3cccc(OCCN4CCCCC4)c3)C2)cc1 (centres unmarked) [Compound 22, 7-(4-Hydroxy-phenyl)-9-[3-(2-piperidin-1-yl-ethoxy)-benzyl]-6,7,8,9-tetrahydro-5-oxa-9-aza-benzocyclohepten-3-ol] | 52 | 560 |
